Laboratory results reported in patent US9643970B2, “Substituted imidazo [1,5-a]pyrazines as PDE9 inhibitors” (H Lundbeck A/S, priority 2012, dated 2017).

molecular target: PDE9 (Homo sapiens, UniProt O76083); assay: PDE9 inhibition assay; type: biochemical; details: not given
Protocol: Reactions are initiated by addition of the cyclic nucleotide substrate, and reactions are allowed to proceed for one hr at room temperature before being terminated through mixing with 15 uL 8 mg/mL yttrium silicate SPA beads (Amersham). […] IC50 values were calculated by non linear regression using XLfit (IDBS).

Chain of PDE9 (O76083 whole entry): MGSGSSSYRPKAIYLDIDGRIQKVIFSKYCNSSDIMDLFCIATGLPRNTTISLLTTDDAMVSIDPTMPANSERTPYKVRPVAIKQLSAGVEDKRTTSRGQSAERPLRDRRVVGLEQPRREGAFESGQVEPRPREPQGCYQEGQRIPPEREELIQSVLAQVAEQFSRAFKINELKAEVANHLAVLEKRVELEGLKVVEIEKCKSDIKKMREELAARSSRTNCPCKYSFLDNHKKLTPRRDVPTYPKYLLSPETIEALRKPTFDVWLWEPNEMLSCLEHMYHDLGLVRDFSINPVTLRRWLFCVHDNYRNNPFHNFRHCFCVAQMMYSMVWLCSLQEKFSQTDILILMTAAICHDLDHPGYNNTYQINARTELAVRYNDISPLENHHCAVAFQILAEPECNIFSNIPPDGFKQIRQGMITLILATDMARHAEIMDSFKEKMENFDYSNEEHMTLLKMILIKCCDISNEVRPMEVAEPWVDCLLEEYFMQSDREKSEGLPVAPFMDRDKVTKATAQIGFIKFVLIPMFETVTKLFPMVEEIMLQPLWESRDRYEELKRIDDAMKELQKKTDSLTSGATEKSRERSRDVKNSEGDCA

| SMILES | IC50 [nM] |
| --- | --- |
| O=c1[nH]c(CN2CC(c3ccccc3)C2)cn2c(C3CCOCC3)ncc12 [Compound 68, 6-[(3-phenylazetidin-1-yl)methyl]-3-tetrahydropyran-4-yl-7h-imidazo[1,5-a]pyrazin-8-one] | 8 |
| COc1ccc(C2CN(Cc3cn4c(C5CCOCC5)ncc4c(=O)[nH]3)C2)cc1 [Compound 69, 6-[[3-(4-methoxyphenyl)azetidin-1-yl]methyl]-3-tetrahydropyran-4-yl-7h-imidazo[1,5-a]pyrazin-8-one] | 30 |
| O=c1[nH]c(CN2CC(c3ccc(C(F)(F)F)cn3)C2)cn2c(C3CCOCC3)ncc12 [Compound 70, 3-tetrahydropyran-4-yl-6-[[3-[5-(trifluoromethyl)-2-pyridyl]azetidin-1-yl]methyl]-7h-imidazo[1,5-a]pyrazin-8-one] | 10 |
| O=c1[nH]c(CN2CC(Oc3cccc(F)c3)C2)cn2c(C3CCOCC3)ncc12 [Compound 71, 6-[[3-(3-fluorophenoxy)azetidin-1-yl]methyl]-3-tetrahydropyran-4-yl-7h-imidazo[1,5-a]pyrazin-8-one] | 7 |
| O=c1[nH]c(CN2CC(Oc3ccc(F)cc3)C2)cn2c(C3CCOCC3)ncc12 [Compound 75, 6-[[3-(4-fluorophenoxy)azetidin-1-yl]methyl]-3-tetrahydropyran-4-yl-7h-imidazo[1,5-a]pyrazin-8-one] | 115 |
| O=c1[nH]c(CN2CC(Oc3cccnc3)C2)cn2c(-c3ccc(F)cc3)ncc12 [Compound 88, 3-(4-fluorophenyl)-6-[[3-(3-pyridyloxy)azetidin-1-yl]methyl]-7h-imidazo[1,5-a]pyrazin-8-one] | 3 |
| N#Cc1ccc(OC2CN(Cc3cn4c(-c5ccc(F)cc5)ncc4c(=O)[nH]3)C2)cc1 [Compound 92, 4-[1-[[3-(4-fluorophenyl)-8-oxo-7h-imidazo[1,5-a]pyrazin-6-yl]methyl]azetidin-3-yl]oxybenzonitrile] | 76 |
| N#Cc1cccc(OC2CN(Cc3cn4c(C5CCOCC5)ncc4c(=O)[nH]3)C2)c1 [Compound 94, 3-[1-[(8-oxo-3-tetrahydropyran-4-yl-7h-imidazo[1,5-a]pyrazin-6-yl)methyl]azetidin-3-yl]oxybenzonitrile] | 12 |
| O=c1[nH]c(CN2CC(Oc3cccc(C(F)(F)F)c3)C2)cn2c(-c3ccc(F)cc3)ncc12 [Compound 95, 3-(4-fluorophenyl)-6-[[3-[3-(trifluoromethyl)phenoxy]azetidin-1-yl]methyl]-7h-imidazo[1,5-a]pyrazin-8-one] | 97 |
| N#Cc1ccc(C2CN(Cc3cn4c(-c5ccc(F)cc5)ncc4c(=O)[nH]3)C2)cc1 [Compound 96, 4-[1-[[3-(4-fluorophenyl)-8-oxo-7h-imidazo[1,5-a]pyrazin-6-yl]methyl]azetidin-3-yl]benzonitrile] | 2 |

same assay, conditions: SPA assay, 10 nM 3H-cAMP, 1 hour incubation; read-out: IC50

| SMILES | IC50 [nM] |
| --- | --- |
| O=c1[nH]c(CN2CC(Oc3cnc4ccccc4n3)C2)cn2c(C3CCOCC3)ncc12 [Compound 72, 6-[(3-quinoxalin-2-yloxyazetidin-1-yl)methyl]-3-tetrahydropyran-4-yl-7h-imidazo[1,5-a]pyrazin-8-one] | 139 |
| O=c1[nH]c(CN2CC(Oc3ccccc3)C2)cn2c(-c3ccc(F)cc3)ncc12 [Compound 73, 3-(4-fluorophenyl)-6-[(3-phenoxyazetidin-1-yl)methyl]-7h-imidazo[1,5-a]pyrazin-8-one] | 177 |
| O=c1[nH]c(CN2CC(Oc3ccc(OC(F)(F)F)cc3)C2)cn2c(-c3ccc(F)cc3)ncc12 [Compound 74, 3-(4-fluorophenyl)-6-[[3-[4-(trifluoromethoxy)phenoxy]azetidin-1-yl]methyl]-7h-imidazo[1,5-a]pyrazin-8-one] | 16 |
| O=c1[nH]c(CN2CC(c3ccc(F)cc3)C2)cn2c(-c3ccc(F)cc3)ncc12 [Compound 76, 3-(4-fluorophenyl)-6-[[3-(4-fluorophenyl)azetidin-1-yl]methyl]-7h-imidazo[1,5-a]pyrazin-8-one] | 33 |
| O=c1[nH]c(CN2CC(c3ccc(C(F)(F)F)cn3)C2)cn2c(-c3ccc(F)cc3)ncc12 [Compound 77, 3-(4-fluorophenyl)-6-[[3-[5-(trifluoromethyl)-2-pyridyl]azetidin-1-yl]methyl]-7h-imidazo[1,5-a]pyrazin-8-one] | 4 |
| CCc1ccc(C2CN(Cc3cn4c(C5CCOCC5)ncc4c(=O)[nH]3)C2)cc1 [Compound 78, 6-[[3-(4-ethylphenyl)azetidin-1-yl]methyl]-3-tetrahydropyran-4-yl-7h-imidazo[1,5-a]pyrazin-8-one] | 6 |
| CC1CN(Cc2ccc(C(F)(F)F)nc2)CC1c1cn2c(C3CCOCC3)ncc2c(=O)[nH]1 (centres unmarked) [Compound 79, 6-[4-methyl-1-[[6-(trifluoromethyl)-3-pyridyl]methyl]pyrrolidin-3-yl]-3-tetrahydropyran-4-yl-7h-imidazo[1,5-a]pyrazin-8-one] | 23 |
| N#Cc1ccc(OC2CN(Cc3cn4c(C5CCOCC5)ncc4c(=O)[nH]3)C2)cc1 [Compound 80, 4-[1-[(8-oxo-3-tetrahydropyran-4-yl-7h-imidazo[1,5-a]pyrazin-6-yl)methyl]azetidin-3-yl]oxybenzonitrile] | 18 |
| CC1CN(Cc2ccccn2)CC1c1cn2c(C3CCOCC3)ncc2c(=O)[nH]1 (centres unmarked) [Compound 81, 6-[4-methyl-1-(2-pyridylmethyl)pyrrolidin-3-yl]-3-tetrahydropyran-4-yl-7h-imidazo[1,5-a]pyrazin-8-one] | 19 |
| O=c1[nH]c(CN2CC(Oc3ccncc3)C2)cn2c(C3CCOCC3)ncc12 [Compound 82, 6-[[3-(4-pyridyloxy)azetidin-1-yl]methyl]-3-tetrahydropyran-4-yl-7h-imidazo[1,5-a]pyrazin-8-one] | 14 |
| O=c1[nH]c(CN2CCC(Oc3ncccn3)C2)cn2c(C3CCOCC3)ncc12 (centres unmarked) [Compound 84, 6-[(3-pyrimidin-2-yloxypyrrolidin-1-yl)methyl]-3-tetrahydropyran-4-yl-7h-imidazo[1,5-a]pyrazin-8-one] | 110 |
| O=c1[nH]c(CN2CCC(Oc3ccccc3)C2)cn2c(-c3ccc(F)cc3)ncc12 (centres unmarked) [Compound 85, 3-(4-fluorophenyl)-6-[(3-phenoxypyrrolidin-1-yl)methyl]-7h-imidazo[1,5-a]pyrazin-8-one] | 140 |
| O=c1[nH]c(CN2CCC(Oc3ncccn3)C2)cn2c(-c3ccc(F)cc3)ncc12 (centres unmarked) [Compound 86, 3-(4-fluorophenyl)-6-[(3-pyrimidin-2-yloxypyrrolidin-1-yl)methyl]-7h-imidazo[1,5-a]pyrazin-8-one] | 233 |
| O=c1[nH]c(CN2CC(Oc3ccncc3)C2)cn2c(-c3ccc(F)cc3)ncc12 [Compound 87, 3-(4-fluorophenyl)-6-[[3-(4-pyridyloxy)azetidin-1-yl]methyl]-7h-imidazo[1,5-a]pyrazin-8-one] | 42 |
| CC1CN(Cc2ccc(F)cc2)CC1c1cn2c(C3CCOCC3)ncc2c(=O)[nH]1 (centres unmarked) [Compound 89, 6-[1-[(4-fluorophenyl)methyl]-4-methyl-pyrrolidin-3-yl]-3-tetrahydropyran-4-yl-7h-imidazo[1,5-a]pyrazin-8-one] | 7 |
| CC1CN(Cc2ncccn2)CC1c1cn2c(C3CCOCC3)ncc2c(=O)[nH]1 (centres unmarked) [Compound 90, 6-[4-methyl-1-(pyrimidin-2-ylmethyl)pyrrolidin-3-yl]-3-tetrahydropyran-4-yl-7h-imidazo[1,5-a]pyrazin-8-one] | 19 |
| CC(c1cn2c(C3CCOCC3)ncc2c(=O)[nH]1)N1CC(c2ncccn2)C1 (centres unmarked) [Compound 91, 6-[1-(3-pyrimidin-2-ylazetidin-1-yl)ethyl]-3-tetrahydropyran-4-yl-7h-imidazo[1,5-a]pyrazin-8-one] | 46 |
| N#Cc1cccc(OC2CN(Cc3cn4c(-c5ccc(F)cc5)ncc4c(=O)[nH]3)C2)c1 [Compound 93, 3-[1-[[3-(4-fluorophenyl)-8-oxo-7h-imidazo[1,5-a]pyrazin-6-yl]methyl]azetidin-3-yl]oxybenzonitrile] | 18 |
| CC1CN(Cc2ccc3nccnc3c2)CC1c1cn2c(C3CCOCC3)ncc2c(=O)[nH]1 (centres unmarked) [Compound 97, 6-[4-methyl-1-(quinoxalin-6-ylmethyl)pyrrolidin-3-yl]-3-tetrahydropyran-4-yl-7h-imidazo[1,5-a]pyrazin-8-one] | 4 |
| CC1CN(Cc2ccc(C#N)cc2)CC1c1cn2c(C3CCOCC3)ncc2c(=O)[nH]1 (centres unmarked) [Compound 98, 4-[[3-methyl-4-(8-oxo-3-tetrahydropyran-4-yl-7h-imidazo[1,5-a]pyrazin-6-yl)pyrrolidin-1-yl]methyl]benzonitrile] | 18 |
| CC1CN(Cc2ccc(F)cc2)CC1c1cn2c(-c3ccc(F)cc3)ncc2c(=O)[nH]1 (centres unmarked) [Compound 99, 3-(4-fluorophenyl)-6-[1-[(4-fluorophenyl)methyl]-4-methyl-pyrrolidin-3-yl]-7h-imidazo[1,5-a]pyrazin-8-one] | 17 |
| CC1CN(Cc2ccc(F)cc2)CC1c1cn2c(-c3ccc(F)cc3)nc(Br)c2c(=O)[nH]1 (centres unmarked) [Compound 100, 1-bromo-3-(4-fluorophenyl)-6-[1-[(4-fluorophenyl)methyl]-4-methyl-pyrrolidin-3-yl]-7h-imidazo[1,5-a]pyrazin-8-one] | 4 |
| COc1ccc(CN2CC(C)C(c3cn4c(C5CCOCC5)ncc4c(=O)[nH]3)C2)cn1 (centres unmarked) [Compound 101, 6-[1-[(6-methoxy-3-pyridyl)methyl]-4-methyl-pyrrolidin-3-yl]-3-tetrahydropyran-4-yl-7h-imidazo[1,5-a]pyrazin-8-one] | 18 |
| Cc1cnc(CN2CC(C)C(c3cn4c(C5CCOCC5)ncc4c(=O)[nH]3)C2)cn1 (centres unmarked) [Compound 102, 6-[4-methyl-1-[(5-methylpyrazin-2-yl)methyl]pyrrolidin-3-yl]-3-tetrahydropyran-4-yl-7h-imidazo[1,5-a]pyrazin-8-one] | 10 |
| N#Cc1ccc(C2CN(Cc3cn4c(C5CCOCC5)ncc4c(=O)[nH]3)C2)cc1 [Compound 106, 4-[1-[(8-oxo-3-tetrahydropyran-4-yl-7h-imidazo[1,5-a]pyrazin-6-yl)methyl]azetidin-3-yl]benzonitrile] | 32 |
